# Laboratory results taken from paper PMC4725965, “Comprehensive Structural Characterization of the Bacterial Homospermidine Synthase–an Essential Enzyme of the Polyamine Metabolism” (Scientific Reports, 2016).
# How the values were obtained:
# [1] = target: T1, BvHSS (Blastochloris viridis, UniProt O32323); test: X-ray crystallography; format: binding
# T1 construct: gene hss; full-length BvHSS from pETM14, E. coli BL21 (DE3); N-terminal 6xHis-tag cut with HRV3C protease; homodimer; active site within one subunit; domains cover residues 3-477; first four amino acids not traced
# T1 sequence (O32323 1-477): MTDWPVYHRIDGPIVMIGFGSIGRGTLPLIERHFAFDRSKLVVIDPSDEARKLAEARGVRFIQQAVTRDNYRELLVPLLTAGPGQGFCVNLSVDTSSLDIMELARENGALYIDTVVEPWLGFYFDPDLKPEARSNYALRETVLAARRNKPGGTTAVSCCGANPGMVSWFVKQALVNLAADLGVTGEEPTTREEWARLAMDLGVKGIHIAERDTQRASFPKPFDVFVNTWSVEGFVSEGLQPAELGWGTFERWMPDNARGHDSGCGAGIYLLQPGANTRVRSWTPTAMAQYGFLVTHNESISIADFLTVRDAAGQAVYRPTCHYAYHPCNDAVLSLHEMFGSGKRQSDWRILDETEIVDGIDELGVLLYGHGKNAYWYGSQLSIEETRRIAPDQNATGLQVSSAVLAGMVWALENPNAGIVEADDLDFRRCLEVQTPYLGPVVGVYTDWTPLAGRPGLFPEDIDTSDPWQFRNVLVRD
# [2] = target: T2, BvHSS (Blastochloris viridis, UniProt O32323, H296S); test: X-ray crystallography; format: binding; details: pH 4.6
# T2 construct: gene hss; full-length BvHSS from pETM14, E. coli BL21 (DE3); N-terminal 6xHis-tag cut with HRV3C protease; homodimer; active site within one subunit; domains cover residues 3-477; first four amino acids not traced
# [3] = target: T3, BvHSS (Blastochloris viridis, UniProt O32323, E237Q); test: X-ray crystallography; format: binding; details: co-crystal with 0.2 M AGM and 0.2 M PUT; no polyamine in active site; pH 4.6
# T3 construct: gene hss; full-length BvHSS from pETM14, E. coli BL21 (DE3); N-terminal 6xHis-tag cut with HRV3C protease; homodimer; active site within one subunit; domains cover residues 3-477; first four amino acids not traced
# [4] = target: T1, BvHSS; test: X-ray crystallography; format: biochemical; details: DAP co-crystal soaked 300 s with 0.2 M PUT; product formed in crystal; pH 4.8; active site, subunit A; transition-close state with partial Schiff base, modelled as 37Z
# [5] = target: Blastochloris viridis homospermidine synthase (Blastochloris viridis) (UniProt O32323); test: crystal structure; hanging-drop vapour diffusion at 18 °C, reservoir 100 mM sodium acetate pH 4.6-4.8; NAD+ bound, with or without polyamines; two subunits (A and B) in the asymmetric unit
# T2 sequence (O32323 whole entry H296S, the tested form may be a part): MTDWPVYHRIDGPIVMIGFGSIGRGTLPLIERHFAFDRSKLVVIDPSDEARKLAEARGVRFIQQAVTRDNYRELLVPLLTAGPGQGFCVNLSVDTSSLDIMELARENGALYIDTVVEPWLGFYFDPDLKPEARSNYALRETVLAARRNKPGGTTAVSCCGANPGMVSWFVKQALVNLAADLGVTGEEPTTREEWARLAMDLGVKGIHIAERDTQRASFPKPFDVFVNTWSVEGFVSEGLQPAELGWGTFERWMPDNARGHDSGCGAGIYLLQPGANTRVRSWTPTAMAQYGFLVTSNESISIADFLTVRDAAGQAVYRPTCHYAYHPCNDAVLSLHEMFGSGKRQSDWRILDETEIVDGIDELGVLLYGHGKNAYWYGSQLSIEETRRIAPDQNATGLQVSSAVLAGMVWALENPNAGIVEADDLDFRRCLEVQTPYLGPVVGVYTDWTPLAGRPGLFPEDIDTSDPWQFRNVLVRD
# T3 sequence (O32323 whole entry E237Q, the tested form may be a part): as the sequence (O32323 whole entry H296S, the tested form may be a part) above, with E237Q, S296H counted along it
molecule,measurement,setting,value
"NCCCN [1,3-diaminopropane]",X-ray crystallography,"[1]; co-crystal with 0.2 M DAP and 0.2 M PUT, NAD+ bound, pH 4.6, active site, second DAP at the ionic slide (pocket entrance), Table 3 misprints the PDB id as 4XQE",Two DAP molecules were found at two different positions in subunit A (PDB ID: 4XQC)
NC(=O)c1ccc[n+]([C@@H]2O[C@H](COP(=O)(O)OP(=O)(O)OC[C@H]3O[C@@H](n4cnc5c(N)ncnc54)[C@H](O)[C@@H]3O)[C@@H](O)[C@H]2O)c1 [NAD^+],X-ray crystallography,[2]; co-crystal with 0.2 M AGM,BvHSS and BvHSS variants with bound NAD^+ in complex with various polyamines
same,X-ray crystallography,"[1]; no polyamine, pH 4.6, non-covalently bound prosthetic group",with bound NAD^+ (Protein Data Bank [PDB] ID: 4PLP)
same,X-ray crystallography,[3],BvHSS and BvHSS variants with bound NAD^+ in complex with various polyamines
N=C(N)NCCCCN [agmatine],X-ray crystallography,"[2]; co-crystal with 0.2 M AGM, NAD+ bound, active site",the variant H296S was found to bind AGM within the active site
NCCCCN [putrescine],X-ray crystallography,"[2]; AGM co-crystal soaked 300 s with 0.2 M PUT, NAD+ bound, active site, partial occupancy beside AGM, enzymatically inactive variant",partial replacement of AGM with PUT (Fig. 6f)
same,X-ray crystallography,"[1]; DAP co-crystal soaked 300 s with 0.2 M PUT, NAD+ bound, pH 4.8, inner binding site, subunit B, transition-close state","The active site of BvHSS with bound PUT (PDB ID: 4TVB, subunit B)"
"NCCCCNCCCCN [sym-homospermidine, bis(4-aminobutyl)amine]",X-ray crystallography,[4],transition close state of the reduction to HSP bound in subunit A
Blastochloris viridis homospermidine synthase (from UniProt O32323 1-477) (enzyme),stoichiometry N,[5],2
